Reference: patent US8445531B2, “Rodenticidal compounds, composition including same and use thereof for controlling harmful rodents” (priority 2010, dated 2013)

How the values were obtained:
rats [1] = test: Mortality follow-up in rats after repeated administration; assay type: in vivo, rat
From the text: The rodenticidal effectiveness and the remanence of the compounds according to the invention have been tested in comparison with the rodenticidal product of reference bromadiolone, with bromadiolone being the least remanent of all of the second-generation anticoagulants currently used in combating rodents.
For this test, the compound of formula (II) that is obtained by implementing the process disclosed above is used.
(§1) 3 lots of 5 rats were used for the compound of formula (II), and 2 lots of 4 rats were used for bromadiolone.
(§2) 3 doses of 10 mg/kg of rat were administered intraperitoneally in succession at T0, T24h and T48h.
1 lot of rats was used to follow the mortality rate brought about by the 3 administrations of the compound of formula (II) according to the invention.
(§3) Doses of 2 mg/kg/day were administered for 4 days.
1 lot of rats was used to determine the mortality rate brought about at T120h.

[2] = Liver residue follow-up (remanence) in rats; assay type: in vivo; settings: rat liver
Experimental: as §1, §2
1 lot of rats was used to carry out a metering of residue of the compound of formula (II) in the liver at T72h, T96h and T120h.
as §3
A metering of bromadiolone residue in the liver at T120h was carried out.

rats [3] = test: Coagulation time follow-up in rats; assay type: in vivo, rat
Experimental: as §1, §2
1 lot of rats was used to follow the coagulation time between 24 hours and 120 hours after the first injection. Actually, the coagulation time is the first parameter that varies and tends toward infinity under the action of an anticoagulant.
as §3
1 lot of rats was used to follow the coagulation time between 24 hours and 120 hours after the first injection.

[4] = 3 doses of 10 mg/kg intraperitoneally at T0, T24h, T48h, T24 h
[5] = 3 doses of 10 mg/kg intraperitoneally at T0, T24h, T48h, T48 h
[6] = 3 doses of 10 mg/kg intraperitoneally at T0, T24h, T48h, T72 h

SMILES: C/C(=C\Cc1c(O)c2ccccc2oc1=O)CCCC(C)CCCC(C)CCCC(C)C (stereo not drawn) [Compound According to the Invention, 3-phytyl-4-hydroxy-coumarin]
- Total Mortality (rats [1]; 3 doses of 10 mg/kg intraperitoneally at T0, T24h, T48h, 10 mg/kg): 100%
- Mortality Follow-Up (rats [1]; [4]): 2 Deaths
- Mortality Follow-Up (rats [1]; [5]): 2 Deaths
- Mortality Follow-Up (rats [1]; [6]): 1 Death
- Total Mortality (rats [1]; 3 doses of 10 mg/kg intraperitoneally at T0, T24h, T48h, listed as compounds according to the invention, 10 mg/kg): 100%
- concentration at 72 h ([2]; ip, 3 doses of 10 mg/kg intraperitoneally at T0, T24h, T48h, T72 h): 650 ng/g
- concentration at 96 h ([2]; ip, 3 doses of 10 mg/kg intraperitoneally at T0, T24h, T48h, T96 h): 510 ng/g
- concentration at 120 h ([2]; ip, 3 doses of 10 mg/kg intraperitoneally at T0, T24h, T48h, T120 h): 370 ng/g
- Coagulation Time Follow-Up (rats [3]; 3 doses of 10 mg/kg intraperitoneally at T0, T24h, T48h, T0): Infinite
- Coagulation Time Follow-Up (rats [3]; [4]): Infinite
- Coagulation Time Follow-Up (rats [3]; [5]): Infinite
- Coagulation Time Follow-Up (rats [3]; [6]): Infinite
- Coagulation Time Follow-Up (rats [3]; 3 doses of 10 mg/kg intraperitoneally at T0, T24h, T48h, T96 h): Infinite
- Coagulation Time Follow-Up (rats [3]; 3 doses of 10 mg/kg intraperitoneally at T0, T24h, T48h, T120 h): 120 s

SMILES: O=c1oc2ccccc2c(O)c1C(CC(O)c1ccc(-c2ccc(Br)cc2)cc1)c1ccccc1 (stereo not drawn) [Bromadiolone, bromadiolone]
- Total Mortality (rats [1]; 2 mg/kg/day for 4 days, 2 mg/kg/day): 100%
- Mortality Follow-Up (rats [1]; 2 mg/kg/day for 4 days, T96 h): 2 Deaths
- Mortality Follow-Up (rats [1]; 2 mg/kg/day for 4 days, T120 h): 2 Deaths
- Total Mortality (rats [1]; 2 mg/kg/day for 4 days, listed as reference rodenticidal product, 2 mg/kg/day): 100%
- Liver Residue Follow-Up ([2]; 2 mg/kg/day for 4 days, T120 h): 4.2 µg/g
- liver residue of bromadiolone relative to compound of formula (II) ([2]; 120 hours after the first injection): 11 times
- Coagulation Time Follow-Up (rats [3]; 2 mg/kg/day for 4 days, T0): Infinite
- Coagulation Time Follow-Up (rats [3]; 2 mg/kg/day for 4 days, T24 h): Infinite
- Coagulation Time Follow-Up (rats [3]; 2 mg/kg/day for 4 days, T48 h): Infinite
- Coagulation Time Follow-Up (rats [3]; 2 mg/kg/day for 4 days, T72 h): Infinite
- Coagulation Time Follow-Up (rats [3]; 2 mg/kg/day for 4 days, T96 h): Infinite
- Coagulation Time Follow-Up (rats [3]; 2 mg/kg/day for 4 days, T120 h, 2 mg/kg/day): Infinite
- Coagulation Time Follow-Up (rats [3]; 2 mg/kg/day for 4 days, T120 h, listed as bromadiolone, 2 mg/kg/day): infinite
